Drawing on ChEMBL document CHEMBL2169869, “Assay and inhibition of diacylglycerol lipase activity” (Bioorg Med Chem Lett, 2012), this text covers inhibition for seven molecules.

Assay [1] deals with T1, Diacylglycerol lipase-alpha (Homo sapiens) (UniProt Q9Y4D2).
T1 sequence (whole entry): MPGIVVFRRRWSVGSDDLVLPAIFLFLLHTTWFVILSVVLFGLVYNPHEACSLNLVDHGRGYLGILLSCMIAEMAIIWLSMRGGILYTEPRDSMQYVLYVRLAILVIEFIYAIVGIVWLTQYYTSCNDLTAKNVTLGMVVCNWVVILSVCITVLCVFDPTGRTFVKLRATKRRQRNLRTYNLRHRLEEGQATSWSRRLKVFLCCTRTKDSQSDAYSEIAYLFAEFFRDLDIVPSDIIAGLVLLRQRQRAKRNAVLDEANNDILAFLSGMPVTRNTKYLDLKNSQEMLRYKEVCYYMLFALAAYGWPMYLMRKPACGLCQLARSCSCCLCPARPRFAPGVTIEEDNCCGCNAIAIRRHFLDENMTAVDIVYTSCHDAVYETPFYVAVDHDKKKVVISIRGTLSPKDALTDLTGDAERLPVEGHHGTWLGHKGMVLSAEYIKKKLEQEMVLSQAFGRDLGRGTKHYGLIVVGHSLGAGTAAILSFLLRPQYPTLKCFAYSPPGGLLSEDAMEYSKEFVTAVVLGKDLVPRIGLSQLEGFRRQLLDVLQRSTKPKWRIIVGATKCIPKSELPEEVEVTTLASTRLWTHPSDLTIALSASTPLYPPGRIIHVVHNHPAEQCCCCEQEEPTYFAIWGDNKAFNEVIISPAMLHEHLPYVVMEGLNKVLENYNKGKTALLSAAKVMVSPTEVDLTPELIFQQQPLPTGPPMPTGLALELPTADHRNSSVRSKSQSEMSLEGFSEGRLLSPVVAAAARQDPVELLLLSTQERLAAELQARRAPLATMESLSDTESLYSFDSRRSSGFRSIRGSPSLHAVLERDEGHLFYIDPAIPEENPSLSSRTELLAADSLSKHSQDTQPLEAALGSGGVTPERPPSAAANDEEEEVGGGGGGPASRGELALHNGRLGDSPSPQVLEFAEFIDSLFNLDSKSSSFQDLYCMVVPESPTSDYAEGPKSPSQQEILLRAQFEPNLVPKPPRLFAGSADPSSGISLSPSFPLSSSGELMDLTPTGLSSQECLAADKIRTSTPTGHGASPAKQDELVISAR
Description: Inhibition of human DAGLalpha expressed in HEK293T cell membrane using [14C]SAG substrate at 10 uM in detergent free solution by scintillation counting based radio-TLC assay. The note with it: HEK-293T.

In assay [2] the target is T2, Diacylglycerol lipase-alpha (Mus musculus) (UniProt Q6WQJ1).
T2 sequence (whole entry): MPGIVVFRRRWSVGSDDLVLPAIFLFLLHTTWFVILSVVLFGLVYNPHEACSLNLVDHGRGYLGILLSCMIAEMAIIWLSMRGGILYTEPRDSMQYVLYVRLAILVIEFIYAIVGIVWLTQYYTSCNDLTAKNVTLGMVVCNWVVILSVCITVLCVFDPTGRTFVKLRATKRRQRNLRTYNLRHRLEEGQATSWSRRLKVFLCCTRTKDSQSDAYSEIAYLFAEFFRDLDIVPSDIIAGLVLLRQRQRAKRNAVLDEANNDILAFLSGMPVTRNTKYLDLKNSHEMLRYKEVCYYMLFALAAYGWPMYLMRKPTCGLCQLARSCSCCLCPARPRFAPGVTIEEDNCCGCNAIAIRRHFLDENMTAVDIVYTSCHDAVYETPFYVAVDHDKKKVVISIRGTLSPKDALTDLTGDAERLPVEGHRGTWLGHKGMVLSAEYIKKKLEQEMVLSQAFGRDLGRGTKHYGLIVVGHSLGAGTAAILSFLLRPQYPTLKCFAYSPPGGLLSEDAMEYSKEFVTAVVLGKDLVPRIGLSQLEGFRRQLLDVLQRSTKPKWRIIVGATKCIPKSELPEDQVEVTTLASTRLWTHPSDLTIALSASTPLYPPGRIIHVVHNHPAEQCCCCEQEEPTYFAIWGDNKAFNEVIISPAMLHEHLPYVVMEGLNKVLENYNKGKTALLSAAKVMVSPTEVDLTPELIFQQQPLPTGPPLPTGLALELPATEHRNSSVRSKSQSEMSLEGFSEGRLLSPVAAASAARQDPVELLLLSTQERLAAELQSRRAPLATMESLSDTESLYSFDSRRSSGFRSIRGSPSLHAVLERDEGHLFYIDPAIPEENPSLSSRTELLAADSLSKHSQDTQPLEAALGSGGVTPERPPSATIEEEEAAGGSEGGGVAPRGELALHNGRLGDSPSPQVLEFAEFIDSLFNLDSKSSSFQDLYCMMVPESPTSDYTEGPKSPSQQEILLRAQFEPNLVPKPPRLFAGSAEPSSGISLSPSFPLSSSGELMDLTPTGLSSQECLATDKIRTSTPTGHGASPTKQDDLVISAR
Description: Inhibition of mouse DAGLalpha expressed in HEK293T cell membrane using [14C]SAG substrate at 10000 nM by scintillation counting based radio-TLC assay. Format: cell membranes. Particulars: HEK-293T.

The target in assay [3] is T3, Fatty-acid amide hydrolase 1 (Rattus norvegicus) (UniProt P97612).
T3 sequence (whole entry): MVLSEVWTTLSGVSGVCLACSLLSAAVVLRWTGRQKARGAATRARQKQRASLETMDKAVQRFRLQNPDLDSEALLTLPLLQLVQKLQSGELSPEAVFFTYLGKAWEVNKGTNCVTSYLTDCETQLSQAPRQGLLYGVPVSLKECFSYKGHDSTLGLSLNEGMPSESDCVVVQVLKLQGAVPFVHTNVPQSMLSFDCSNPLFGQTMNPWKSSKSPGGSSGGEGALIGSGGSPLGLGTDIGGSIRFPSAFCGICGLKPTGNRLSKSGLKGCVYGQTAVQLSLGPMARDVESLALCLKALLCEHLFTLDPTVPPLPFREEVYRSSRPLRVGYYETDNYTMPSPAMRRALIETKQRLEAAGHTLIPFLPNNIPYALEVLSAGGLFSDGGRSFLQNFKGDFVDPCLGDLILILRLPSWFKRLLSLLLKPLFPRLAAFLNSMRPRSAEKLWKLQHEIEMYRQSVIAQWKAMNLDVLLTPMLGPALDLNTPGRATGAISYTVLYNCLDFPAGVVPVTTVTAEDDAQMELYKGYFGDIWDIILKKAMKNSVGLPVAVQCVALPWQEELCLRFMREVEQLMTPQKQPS
Description: Inhibition of rat histidine tagged FAAH expressed in Escherichia coli at 10 uM by coumarin ester substrate fluorescence assay.

For assay [4], the target named is T2, Diacylglycerol lipase-alpha (Mus musculus). Description: Inhibition of mouse DAGLalpha expressed in HEK293T cell membrane using [14C]SAG substrate at 10 nM by scintillation counting based radio-TLC assay. The class given is cell membranes. Particulars: HEK-293T.
The target of assay [5] is T1, Diacylglycerol lipase-alpha (Homo sapiens). Description: Inhibition of human DAGLalpha expressed in HEK293T cell membrane using [14C]SAG substrate at 10 uM in detergent free solution by […]. The note with it: HEK-293T. Format: cell-based.
In assay [6] the target is T2, Diacylglycerol lipase-alpha (Mus musculus). Description: Inhibition of mouse DAGLalpha expressed in HEK293T cell membrane using [14C]SAG substrate at 1000 nM by scintillation counting based radio-TLC assay. The class given is cell membranes. Particulars: HEK-293T.
In assay [7] the target is T1, Diacylglycerol lipase-alpha (Homo sapiens). Description: Inhibition of human DAGLalpha expressed in HEK293T cell membrane using [14C]SAG substrate at 10 uM in presence of 0.05% Triton X-100 by […]. Particulars: HEK-293T. The class given is cell-based.

One may read the inhibition as the change of the read-out against control, counted positive when it falls.

Active and inactive are the calls of the source. The calls are words filed in the database; no cut-off is given here.

Consider `O=C(Oc1ccc([N+](=O)[O-])cc1)N1CCC(C(O)(c2ccc3c(c2)OCO3)c2ccc3c(c2)OCO3)CC1`, for which the inhibition result in assay [1] and in assay [4] was “inactive” in each case. Also, the values for the inhibition in assay [2], in assay [3] and in assay [5] were 3%, 97% and 59%, respectively.

Regarding `CCCCCCCCCCC[C@@H](C[C@@H]1OC(=O)[C@H]1CCCCCC)OC(=O)[C@@H](NC=O)[C@@H](C)CC`, the inhibition in assay [6] came to 96%; in assay [7] it was 99%; in assay [2], 96%; in assay [3], 7%; in assay [4], 69%; in assay [5] it was 92%.

With `CCCCCCCCCCC[C@@H](C[C@@H]1OC(=O)[C@H]1CCCCCC)OC(=O)[C@@H](NC=O)[C@H](C)CC`, the inhibition in assay [6] came out at 88%; in assay [7] it was 99%; in assay [2], 100%; in assay [3], 3%; in assay [4] it was 60%; in assay [5] it was 92%.

`CCCCCCCCCCC[C@@H](C[C@@H]1OC(=O)[C@H]1CCCCCC)OC(=O)[C@H](CC)NC=O`: the inhibition worked out at 96% in assay [6]; 100% in assay [7]; 100% in assay [2]; 12% in assay [3]; 50% in assay [4]; 93% in assay [5].

As for `CCCCCCCCCCC[C@@H](C[C@@H]1OC(=O)[C@H]1CCCCCC)OC(=O)[C@H](NC=O)[C@@H](C)CC`, the inhibition stood at 75% in assay [6]; 98% in assay [7]; 90% in assay [2]; 0% in assay [3]; 19% in assay [4]; 90% in assay [5].

On to `CCCCCCCCCCC[C@@H](C[C@@H]1OC(=O)[C@H]1CCCCCC)OC(=O)[C@H](NC=O)[C@H](C)CC`, for which the inhibition in assay [6] stood at 69%; in assay [7], 98%; in assay [2] it was 85%; in assay [3], 28%; in assay [4], 33%; in assay [5], 90%.

`CCCCCCCCCCC[C@@H](C[C@@H]1OC(=O)[C@H]1CCCCCC)OC(=O)[C@H](CC(C)C)NC=O` [ORLISTAT]: the inhibition in assay [1] amounted to 100%; in assay [3] it was 6%; in assay [4] it was 55%.
